Patent US20090291442A1, “HSPA1A AS A MARKER FOR SENSITIVITY TO KSP INHIBITORS” (SMITHKLINE BEECHAM CORPORATION, priority 2006, published 2009)
Where a name gives a salt, the structure may show the parent alone.

Key:
[1] = target: T1, KSP (Homo sapiens, UniProt P52732); details: literature statement; cited from earlier work
T1 sequence (P52732 1-1056): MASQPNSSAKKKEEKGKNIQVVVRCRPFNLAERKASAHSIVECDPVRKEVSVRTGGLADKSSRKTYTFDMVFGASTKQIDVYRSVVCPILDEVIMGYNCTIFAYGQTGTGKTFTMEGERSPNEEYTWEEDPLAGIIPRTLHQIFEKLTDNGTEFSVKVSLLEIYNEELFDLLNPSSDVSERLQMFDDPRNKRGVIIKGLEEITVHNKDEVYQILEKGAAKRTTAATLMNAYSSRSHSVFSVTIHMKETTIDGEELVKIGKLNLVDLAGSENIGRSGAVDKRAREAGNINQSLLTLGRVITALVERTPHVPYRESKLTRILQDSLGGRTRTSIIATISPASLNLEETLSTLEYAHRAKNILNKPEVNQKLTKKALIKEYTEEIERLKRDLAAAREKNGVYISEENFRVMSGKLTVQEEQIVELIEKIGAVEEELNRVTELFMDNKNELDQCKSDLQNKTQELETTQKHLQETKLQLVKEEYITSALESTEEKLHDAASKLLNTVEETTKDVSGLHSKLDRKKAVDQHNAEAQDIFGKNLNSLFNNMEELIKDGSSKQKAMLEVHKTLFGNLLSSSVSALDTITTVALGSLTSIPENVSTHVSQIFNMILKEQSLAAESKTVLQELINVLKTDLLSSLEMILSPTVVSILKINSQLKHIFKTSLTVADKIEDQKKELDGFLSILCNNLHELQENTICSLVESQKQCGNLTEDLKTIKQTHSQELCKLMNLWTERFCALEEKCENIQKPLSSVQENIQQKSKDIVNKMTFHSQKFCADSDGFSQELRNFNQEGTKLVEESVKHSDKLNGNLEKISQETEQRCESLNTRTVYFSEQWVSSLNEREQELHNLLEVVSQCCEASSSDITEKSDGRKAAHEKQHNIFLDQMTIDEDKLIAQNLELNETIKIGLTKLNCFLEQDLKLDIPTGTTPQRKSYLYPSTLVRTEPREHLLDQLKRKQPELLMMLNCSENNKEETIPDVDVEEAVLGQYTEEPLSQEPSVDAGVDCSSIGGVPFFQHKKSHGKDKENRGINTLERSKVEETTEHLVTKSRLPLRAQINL

[2] = test system: Colo201 (colon cancer); assay: Cell line sensitivity to KSP inhibitor (FACS analysis); type: cell-based; details: Colo201 cells
Excerpt: (§1) Baseline expression of HSPA1a was validated in 4 cell lines: MX1 (breast cancer) and MV522 (lung cancer) resistant to Ispinesib mesylate and Colo201 (colon cancer) and Colo205 (colon cancer) sensitive to Ispinesib mesylate inhibition. Like the tumors, HSPA1a expression differentiated the resistant cell lines from the sensitive cell lines.
(§2) A more extensive list of preclinical cell lines compared with those presented in Example 2, including cell lines from both solid and liquid tumors, was analyzed. Again, these cell lines were previously determined to be either resistant or sensitive to Ispinesib mesylate using FACS analysis. […] Of the 22 cell lines analyzed, HSPA1a expression levels were correctly able to classify 19 cell lines as resistant or sensitive to the KSP inhibitor. The HSPA1a marker misclassified 2 cell lines Daudi and HCT116 as sensitive (due to low baseline expression in these cells) and HeLaS3 cell line as resistant (due to high baseline expression of HSPA1a in these cells).

[3] = test system: MV522 (lung cancer); assay: as above; type: cell-based; details: MV522 cells
Excerpt: as §1, §2

[4] = test system: Colo205 (colon cancer); assay: as above; type: cell-based; details: Colo205 cells
Excerpt: as §1, §2

[5] = test system: MX1 (breast cancer); assay: as above; type: cell-based; details: MX1 cells
Excerpt: as §1, §2

[6] = test system: Wilm's tumor WT10 xenograft; assay: Outcome of human Wilm's tumor xenograft WT10 to KSP inhibitor; type: in vivo; details: Wilm's tumor xenograft WT10, known outcome
Experimental: (§3) Affymetrix® gene expression profiling was conducted to identify baseline expression patterns associated with sensitivity to the KSP inhibitor in human Wilm's tumor xenograft models. Total RNA from three distinct Wilm's tumors with known outcomes to Ispinesib mesylate (2-3 replicates) inhibition was labeled using a 5 μg protocol and hybridized to the HG-U133A Affymetrix® array. Baseline gene expression differences between tumors resistant (WT7 and WT8) and sensitive (WT10) to Ispinesib mesylate were compared. […] Validation by QPCR of the same tumors confirmed this expression pattern.

[7] = test system: Wilm's tumor WT7 xenograft; assay: Outcome of human Wilm's tumor xenograft WT7 to KSP inhibitor; type: in vivo; details: Wilm's tumor xenograft WT7, known outcome
Experimental: as §3

[8] = test system: Wilm's tumor WT8 xenograft; assay: Outcome of human Wilm's tumor xenograft WT8 to KSP inhibitor; type: in vivo; details: Wilm's tumor xenograft WT8, known outcome
Experimental: as §3

Compound: Cc1ccc(C(=O)N(CCCN)[C@@H](c2nc3cc(Cl)ccc3c(=O)n2Cc2ccccc2)C(C)C)cc1 [Ispinesib mesylate]
- inhibition of KSP (in words) [1]: potent and selective inhibitor of KSP
- cell line resistant or sensitive to the compound [2]: sensitive
- cell line resistant or sensitive to the compound [3]: resistant
- cell line resistant or sensitive to the compound [4]: sensitive
- cell line resistant or sensitive to the compound [5]: resistant
- tumor resistant or sensitive to the compound [6]: sensitive
- tumor resistant or sensitive to the compound [7]: resistant
- tumor resistant or sensitive to the compound [8]: resistant
